Laboratory results published in patent US8349845B2, “Thiazolopyrimidines for use in therapy” (Sosei Group Corporation, priority 2005, dated 2013).

Assays:
[1] = test system: rats with diabetic neuropathy; assay: PWT in rats with streptozotocin-induced diabetic neuropathy; format: in vivo, rat
Description: Under isofluorane anaesthesia, adult male Sprague-Dawley rats (150-200 g) were given an intraperitoneal injection of streptozotocin (75 mg/kg, Calbiochem). After injection, particular care was taken to ensure that water and food were available at all time and the beddings were changed frequently. A week after streptozocin injection, the blood glucose content was examined using Advantage II with Accutech strips (Roche). Only rats with blood glucose higher than 12 mM/L (216 mg/DL) were chosen for behavioural study. The assessment of neuropathic pain state using von Frey hairs was the same as described for Example 1. Rats with lowered PWT (<4 g) were used for either vehicle (1 ml/kg, p.o. or Compound 1 (1, 3, 10, and 30 mg/kg p.o.) dosing. The PWT was reassessed at 1, 2, 3, 4 and 6 hours after oral dosing.

CCI rats [2] = assay: Single oral dose study, mechanical allodynia (von Frey PWT) in rat chronic constriction injury (CCI) model; format: in vivo; details: 20 mg/kg p.o.; for paw withdrawal threshold (PWT): mean±S.E.M.
Description: The rat chronic constriction injury (CCI) model was prepared following the standard protocols (Bennett and Xie, 1988). Briefly, male Sprague-Dawley rats, weighing 150-175 gram at arrival, were anaesthetized with a 5% isofluorane/95% oxygen gas mixture followed by an i.p. injection of sodium pentobarbitone (50 mg/kg). The lateral side of the left hind limb was shaved and sterilized with 75% ethanol. An incision of about 1 cm was made to expose the sciatic nerve. Four loose ligations with 4-0 suture silk were made on the sciatic nerve. The wound was closed in layers with silk suture and the animals were placed in a recovering chamber with the temperature controlled at 30° C. The animals were then returned to their home cage after complete return of consciousness and the return of free movement. A dose of amoxicillin (0.1 ml, 15 mg) was routinely injected intraperitoneally after surgery to prevent infection. In CCI rats, the assessment of paw withdrawal threshold (PWT) in response to the mechanical stimulation started 14 days after surgery. […] The PWT was measured using a series of graduated von Frey hairs. The animals were placed in individual perspex boxes on a raised metal mesh for at least 30 min before the test. Starting from a filament of lower force (1 g), each filament was applied perpendicularly to the centre of the paw pad until it slightly bends for 6 seconds. If the animal withdrew or lifted the paw upon stimulation, then a hair with force immediately lower than that tested would be used. If no response was observed, then a hair with force immediately higher would be used. The lowest amount of force required to induce reliable responses (positive in 3 out of 5 trials) was recorded as the value of PWT. A suspension of Compound 1 was made with 5% DMSO in saline (10 mg/ml). The suspension was sonicated for at least 20 min before application. All data in this study are presented as mean±S.E.M. and are analysed with the student-t-test or one way ANOVA as appropriate. The significance level was set at P<0.05.

CCI rats [3] = assay: Dose-response study, mechanical allodynia (PWT) in CCI model; format: in vivo, rat; details: CCI rats, 1, 3, 10, 30 mg/kg orally, 30-360 min after dosing
Description: The methods for preparing CCI animals and assessing mechanical allodynia using von Frey hairs were as described in Example 1. Four doses of Compound 1 (1, 3, 10, 30 mg/kg) were given orally and the PWT was reassessed at 30, 60, 120, 180, 240 and 360 min after dosing.

[4] = test system: ectopic discharge in CCI rats; assay: Acute administration, spontaneous ectopic discharge in sural nerve of CCI rats; format: in vivo, rat
Description: The preparation of CCI model rats and the assessment of neuropathic pain state were as described for Example 1. The electrophysiological experiments were performed on CCI rats with neuropathic pain states confirmed by von Frey hair testing as previously described. Compound 1 suspension was made in a vehicle containing 1% DMSO, 66% PEG200 and 33% saline to 5 mg/ml. Rats with neuropathic pain were anaesthetized with thiobutabarbital sodium (inactin, 120 mg/kg, i.p. for induction and thereafter 60 mg/kg, i.p. for maintenance, if necessary). The arterial blood pressure and heart rate were routinely monitored and rectal temperature was continuously monitored and maintained at a physiological range using a thermo-blanket system. The skin of the left hind limb was incised and stitched onto a stainless steel “O” ring to form an oil pool. The sural nerve was carefully exposed and repeatedly teased into small bundles containing only one or a few fibres and examined for spontaneous activity. In acute experiments, when an active fibre was found, a period of at least 20 min control recording was obtained. Subsequently, the effects of the vehicle and Compound 1 (5 mg/kg, i.v.) were examined. Activity was monitored for at least 40 minutes following administration of the drug. The frequency of the spontaneous activity was monitored online and analysed offline after experiment. For i.v. injection, Compound 1 suspension (5 mg/ml) was prepared using a vehicle made of 1% DMSO, 66% polyethelene glycol (PEG 200) and 33% normal saline. The suspension was then sonicated for 30 min before administration.

[5] = test system: lipopolysaccharide-induced polyclonal antibody responses; details: preclinical studies; cited from earlier work
[6] = test system: ectopic discharge in CCI rats; assay: Chronic dosing, generation of ectopic discharge and PWT in CCI rats; format: in vivo, rat
Description: After confirmation of neuropathic pain state on day 16 post-surgery, the animals (4 for vehicle group and 4 for drug treatment group) were given either vehicle (5% DMSO in saline) or Compound 130 mg/kg p.o., twice a day for 8 days. At the end of the dosing protocol, the PWT was reassessed before the electrophysiological experiment. The sural nerve was repeatedly teased into fine bundles for examination. For a fibre with spontaneous activity, the recording lasted for at least 1 min; for a fiber without obvious spontaneous activity, the recording lasted for at least 30 sec. In each sural nerve, as many fibres as possible were teased and recorded (more than 150 bundles on average in one animal).

[7] = test system: rat Brennan model of surgical pain; assay: PWT in the rat Brennan model of surgical pain; format: in vivo
Description: The surgical pain model was prepared as described by Brennan et al (1996). Briefly, the rat was anaesthetised with 5% isofluorane in oxygen (2 L/min) for induction followed by an intravenous injection of sodium pentobarbitone (50 mg/kg) prior to surgery. The surgery was carried out under aseptic routines. The left hind paw was sterilized with 75% ethanol solution. A 1.5 cm longitudinal incision was made with a scalpel from about 0.5 cm of the heel edge towards the toes. The plantaris muscle and fascia were elevated and incised longitudinally but the structure of these tissues kept intact. After complete hemostasis with pressure, the skin was closed with stitches of 5-0 suture silk. The animal was routinely given an intraperitoneal injection of Amoxipen 15 mg/kg for prevention of infection after surgery. After surgery, the animals were placed in a temperature-controlled recovering chamber until full return of conscience and voluntary movement, before being returned to their home cages.

CCI rats [8] = assay: Tolerance liability in CCI model (PWT over 7 days of dosing); format: in vivo, rat
Description: The preparation of CCI model rats and the assessment of neuropathic pain state using von Frey hairs were as the same as described for Example 1. The PWT was assessed in the morning for 3 consecutive days prior to the surgery and on days 6, 14, 15 and 16 after surgery. Starting from day 16, the animals were either dosed with vehicle (5% DMSO in saline, 1 ml/kg) or Compound 130 mg/kg p.o., twice a day for 7 days. From day 16 onward, PWT was assessed thereafter every morning and 4 hours after dosing, up to day 23 post surgery.

[9] = test system: mice with autoimmune neuropathy; details: preclinical studies; cited from earlier work
[10] = doses higher than 3 mg/kg p.o., dose-dependent
[11] = CCI rats after chronic treatment

O=C1N=C2SCCN2C(=O)C1Cc1ccc(Cl)cc1 (stereo not shown) [Compound 1, 6-(p-chlorobenzyl)-5H-2,3,6,7-tetrahydro-5,7-dioxothiazolo[3,2-a]pyrimidine]
changes in PWT ([1]; 1 mg/kg p.o.): Neither vehicle or Compound 1 at 1 mg/kg produced significant changes in PWT | changes in PWT [1, 10]: significantly increased the PWT | duration of the effect on PWT (CCI rats [2]): > 6 h | paw withdrawal threshold (PWT) (CCI rats [2]; 2 hours after dosing, P<0.05 vs vehicle): 2.6 ± 0.7 g | paw withdrawal threshold (PWT) (CCI rats [2]; 3 hours after dosing, P<0.01 vs vehicle): 3.0 ± 0.7 g | paw withdrawal threshold (PWT) (CCI rats [2]; 4 hours after dosing, P<0.001 vs vehicle): 6.3 ± 0.8 g | paw withdrawal threshold (PWT) (CCI rats [2]; 6 hours after dosing, P<0.001 vs pre-dosing control): 4.0 ± 0.5 g | effect on PWT (CCI rats [3]): dose-dependently increased the PWT | ectopic discharge after injection ([4]; first CCI preparation, 5 mg/kg i.v., reduced from 682 imps/min): 426 imps/min | firing rate of ectopic discharge, % of control ([4]; four fibres, after administration, P<0.01): 57.1±9.0 % of control | average firing rate of ectopic discharge after administration ([4]; four fibres, before drug 489.7±125.8 imps/min, P<0.01): 307.6±113.4 imps/min | ectopic discharge after injection ([4]; second CCI preparation, iv injection, reduced from 298 imps/min): 104 imps/min | lipopolysaccharide-induced polyclonal antibody responses [5]: inhibited | PWT compared with vehicle-treated ([6]; 4 CCI rats, after 8 days of treatment p.o. twice a day): significantly higher | averaged frequency of spontaneous activity [6, 11]: 888.9 ± 148.5 min⁻¹ | comparison of averaged frequency of spontaneous activity with vehicle group [6, 11]: failed to reveal significant difference | fibres with spontaneous activity ([6]; among 633 fibres recorded from 4 treated rats (vehicle 197 of 602)): 48 fibres | proportions of fibres with spontaneous activity ([6]; chronic treatment of CCI rats, vs vehicle, P<0.001 χ2 test): significantly reduced | time after dosing at which the effect on PWT was first observed [7]: 4 h | time after dosing up to which the effect on PWT lasted [7]: up to 8 hours | changes in PWT ([7]; 3 mg/kg, n=7, P>0.05): Neither vehicle (n=8) or Compound 1 at 3 mg/kg (n=7) produced significant changes in PWT | analgesic effect after 6 hours ([7]; 10 mg/kg): had gone | PWT ([7]; 10 mg/kg, at 4 hours, from control level 1.50±0.36 g, P<0.05): 2.60 ± 0.48 g | PWT ([7]; 30 mg/kg, 6 hours post-dose, P<0.001 vs vehicle): 5.28 ± 0.66 g | PWT ([7]; 30 mg/kg, 8 hours post-dose, P<0.001 vs vehicle): 4.16 ± 0.79 g | PWT ([7]; 30 mg/kg, at 4 hours, from control level 1.82±3.8 g, P<0.001): 3.80 ± 0.44 g | changes in PWT [7, 10]: significantly increased the PWT | baseline PWT compared with vehicle group (CCI rats [8]; after the first day's treatment and throughout the 7 day dosing period, p.o. twice a day): higher than that observed in the vehicle group | time for which CCI-induced mechanical allodynia is alleviated post-dose (CCI rats [8]; on repeat dosing): 12 h | loss of efficacy in reversing lowered PWT (CCI rats [8]; over 7 days of treatment): no significant loss of efficacy | kidney function [9]: restored kidney function
